According to patent publication US6496728B2, “Methods for extracting substances using alternating current” (University of Utah Research Foundation, priority 2000, dated 2002):

Tests used:
[1] = Constant current DC iontophoretic transport across human epidermal membrane in side-by-side diffusion cell
Experimental: Iontophoretic transport studies were carried out in a side-by-side two-chamber diffusion cell (diffusional surface area of around 0.8 cm^2 and chamber volume of 2 mL) with HEM at 37° C. The apparent permeability coefficients (P) in each experiment were calculated by: [formula]
where A is the membrane surface area, t is time, Q is the amount of permeant transported into the receiver chamber, and CD is the concentration of permeant in the donor chamber. The pH of the solutions in the donor and receiver chambers was checked after each iontophoresis run to detect possible water hydrolysis.
Constant current DC transport experiments were carried out at the current level of 0.13 mA/cm^2 using a constant current iontophoretic device (phoresor II Auto, Model No. PM 850, Iomed, Inc., Salt Lake City, Utah) with Ag—AgCl electrodes. […] HEM resistance during iontophoresis was measured by monitoring the electrical potential drop across the membrane using two flexible Luggin capillaries which were inserted into the donor and receiver compartments of the diffusion cells. Each of the Luggin capillaries contained a calomel electrode connected to a voltmeter. The HEM resistance could be determined during iontophoresis according the output current level and the voltmeter readings.
A trace amount of [^14C] […] One ml of sample was taken from the receiver chamber approximately every 30 minutes and replaced with the fresh PBS. A 10 μl sample was taken from the donor chamber every hour. Samples were mixed with 10 ml scintillation cocktail (Ultima Gold™, Packard Instrument Co., Meriden, Conn.) and assayed by a dual-labeled liquid scintillation counter (Parkard TriCarb™ Model 1900 TR Liquid Scintillation Analyzer).

[2] = AC without DC offset (AC + passive) transport across human epidermal membrane in side-by-side diffusion cell; format: in vitro ADME; settings: target skin resistance 2 kΩ; for Papp: all data points from 100 to 330 min
Excerpt: The same protocol was used to reduce the skin electrical resistance to 2 kΩ as described in the AC+DC Offset method. […] Permeants and sampling protocol were the same as in the Constant Current and AC+DC Offset sessions as described above.

[3] = AC + DC offset iontophoretic transport across human epidermal membrane in side-by-side diffusion cell; format: in vitro ADME
Excerpt: The output AC voltage was manually adjusted between 3 to 8 volts to keep the skin resistance at 2 kΩ (±10%) and the DC offset value was kept constant at 0.25 V during the entire period of the experiment. The same permeants and sampling protocol were used as described in the Constant Current Session.

[4] = 0.13 mA/cm^2 DC, data points between 100 and 330 minutes
[5] = AC + DC, 50 Hz, DC offset 250 mV, target skin resistance 2 kΩ, data points between 100 and 330 minutes

| Slope of normalized mannitol flux versus time (linear regression) [1, 4] | Rate of change of mannitol flux, fold higher with constant current DC than with AC without DC Offset ([1]; constant current DC versus AC without DC Offset) [fold] | Rate of change of mannitol flux, fold higher with constant current DC than with AC+DC Offset ([1]; constant current DC versus AC+DC Offset) [fold] | Papp ([1]; human) [nm/s] | Papp at 180 min ([1]; human) [nm/s] | Slope of normalized mannitol flux versus time (linear regression) ([2]; AC 50 Hz, no DC offset, data points between 100 and 330 minutes) | Papp ([2]; human, AC (50 Hz) w/o DC offset, 28 points (4 skin samples), read-out: Mannitol permeability coefficient, mean) [nm/s] | Papp at 180 min ([2]; human, AC (50 Hz) w/o DC offset, one time point (180 min), 4 samples, read-out: Mannitol permeability coefficient, mean) [nm/s] | Slope of normalized mannitol flux versus time (linear regression) [3, 5] | Rate of change of mannitol flux, lower with AC+DC Offset method compared with AC without DC Offset method ([3]; AC+DC Offset versus AC without DC Offset) [%] | Papp ([3]; human, AC (50 Hz) with 0.25 V DC offset, target skin resistance 2 kΩ, all data points from 100 to 330 min, 36 points (6 skin samples), read-out: Mannitol permeability coefficient, mean) [nm/s] | Papp at 180 min ([3]; human, AC (50 Hz) with 0.25 V DC offset, target skin resistance 2 kΩ, one time point (180 min), 6 samples, read-out: Mannitol permeability coefficient, mean) [nm/s] | Structure (SMILES) | Slope of normalized TEA^+ flux versus time (linear regression) [1, 4] | Papp ([2]; human, AC (50 Hz) w/o DC offset, 28 points (4 samples), read-out: TEA^+ permeability coefficient, mean) [nm/s] | Slope of normalized TEA^+ flux versus time (linear regression) [3, 5] |
| --- | --- | --- | --- | --- | --- | --- | --- | --- | --- | --- | --- | --- | --- | --- | --- |
| 4 × 10^−10 cm sec^−1 min^−1 | 5.7 | 10 | 1.6 | 1.5 | 7 × 10^−11 cm sec^−1 min^−1 | 0.985 | 1.01 | 4 × 10^−11 cm sec^−1 min^−1 | 57 | 1.6 | 1.7 | OC[C@@H](O)[C@@H](O)[C@H](O)[C@H](O)CO [Mannitol, mannitol] | – | – | – |
| – | – | – | – | – | – | – | – | – | – | – | – | CC[N+](CC)(CC)CC.[Br-] [TEA^+, tetraethylammonium bromide] | 6 × 10^−9 cm sec^−1 min^−1 | 10.8 | 2 × 10^−9 cm sec^−1 min^−1 |
